This is an account of results in article PMC2064136 (The Journal of Cell Biology, 2007).

Series [1] relates to mouse liver mitochondria (MLM). Type of series: biochemical.
The subject of series [2] is Xenopus egg mitochondria (XEM). It counts as biochemical, Xenopus laevis. Particulars: for concentration that protected XEM against at least 20 nM tBid: titrations in XEM supplemented with tBid (Fig. 5 A).
For the next series, the system named is Bak. The note with it: ref Willis et al., 2005; cited from earlier work.
[3] abbreviates: full-length Bcl-xL, tBid 2 h (Fig. 3).

As to “Bcl-xL: recombinant full-length human Bcl-xL”, in series [1] (setting [3]), the “concentration protecting MLM from tBid” value is ~20 nM. The “concentration protecting XEM from tBid” value in series [2] (setting [3]) is ~20 nM. Besides, the “concentration that protected XEM against at least 20 nM tBid” value in series [2] was found to be 30 nM. Besides, in the series with Bak, the “binding to Bak” value was “bind Bak”.
In the case of “Bcl-xLΔC24: C-terminally truncated form of human Bcl-xL”, the “loss of activity relative to full-length Bcl-xL in protecting MLM from tBid” value in series [1] (MLM, tBid (Fig. 3 B)) was 10–30 times.
With “Mcl-1: recombinant mouse Mcl-1ΔN151ΔC11 with five additional N-terminal residues (GPLGS)”, the “block of the permeabilizing effect of Bad, Bmf and Hrk BH3 peptides on MLM” value in series [1] (MLM incubated as for XEM with mBad, Bmf, Hrk BH3 peptides (Fig. 4 B)) is “also blocked”. In addition, the “relative protection of XEM from different BH3 peptides” value in series [2] (Fig. S4) was “protected XEM better from the Bad than from the Bim or Puma peptides”. Further, in series [2], the “concentration that protected XEM against at least 20 nM tBid” value is 300 nM. Also, in the series with Bak, the “binding to Bak” value is recorded as “bind Bak”.
